Laboratory results published in article PMC9268448, “Synthesis of 4,5-Dihydro-1H-[1,2]dithiolo[3,4-c]quinoline-1-thione Derivatives and Their Application as Protein Kinase Inhibitors” (Molecules, 2022).

Experiments:
[1] = biological target: T1, NPM1-ALK (Homo sapiens, UniProt Q9UM73); assay: Kinase inhibition ELISA, NPM1-ALK; format: biochemical; conditions: 10 μM test compound, 150 μM ATP
T1 construct: NPM1 (nucleophosmin, P06748) fusion partner
Protocol: (§1) Study of inhibitory activity. […] The enzymatic reaction was stopped with a buffer containing 20 mM HEPES (Sigma, H4034), pH 7.5, and 150 mM EDTA (Sigma, E5513). […] Incubation was carried out for 1 h at room temperature. […] After completion of each incubation step (60 min at room temperature (~20 °C) and continuous stirring), the plates were washed three times from unbound antibody molecules with a PBS solution with Tween-20 and 100 μL of substrate (3.3′,5.5′-tetramethylbenzidine (TMB) dihydrochloride, Sigma, T8768) prepared according to the manufacturer’s instructions. Before measuring the optical density, the reaction was stopped using 0.5 M Н2SO4. The optical density of the solution was determined at λ = 450 nm using a tablet spectrophotometer (TECAN Safire). The data obtained were processed and imported into the HTSCalc program.
(§2) The data were analyzed using GraphPad Prism software (v. 3.1).

[2] = biological target: ALK (Homo sapiens, UniProt Q9UM73); assay: Kinase inhibition ELISA, ALK; format: biochemical; conditions: 10 μM test compound, 150 μM ATP
Protocol: (§3) Study of inhibitory activity. The kinase activity was determined by enzyme-linked immunosorbent assay (ELISA) in polypropylene plates (Costar, 3363) in reaction buffer (20 mM HEPES, pH 7.5, 15 mM MgCl2, 2 mM DTT, 0.2 mM Na3VO4, 0.005% Triton X-100) for 60 min at 30 °C with vigorous stirring. The final concentration of the reaction components: 0.05 μg mL^–1 of the corresponding kinase, 5 nM Histon H3 biotinylated substrate (1–21) (Anaspec, 61702), 150 μM ATP (Sigma, A6419), 10 μM test compound, 5% DMSO. The enzymatic reaction was stopped with a buffer containing 20 mM HEPES (Sigma, H4034), pH 7.5, and 150 mM EDTA (Sigma, E5513). Further, to detect the phosphorylated substrate, the reaction mixture was transferred to pre-prepared plates (Nunc, 468667) coated with neutravidin (1 ng per well; Pierce, 31000) and treated with bovine serum albumin (BSA) to block non-specific binding sites. Incubation was carried out for 1 h at room temperature. After washing the plates three times with phosphate buffer saline (PBS, pH 7.4) with Tween-20, they were incubated sequentially with anti-phospho-Histon H3 antibodies (0.3 ng μL^–1; Millipore, 04-746) and with specific antibodies conjugated with an enzyme-label (peroxidase) Anti-rabbit IgG, HRP-linked Antibody (titer 1/5000; Cell Signaling, 7074). After completion of each incubation step (60 min at room temperature (~20 °C) and continuous stirring), the plates were washed three times from unbound antibody molecules with a PBS solution with Tween-20 and 100 μL of substrate (3.3′,5.5′-tetramethylbenzidine (TMB) dihydrochloride, Sigma, T8768) prepared according to the manufacturer’s instructions. Before measuring the optical density, the reaction was stopped using 0.5 M Н2SO4. The optical density of the solution was determined at λ = 450 nm using a tablet spectrophotometer (TECAN Safire). The data obtained were processed and imported into the HTSCalc program.

[3] = biological target: EGFR[L858R][T790] (Homo sapiens, UniProt P00533, L858R/T790M); assay: Kinase inhibition ELISA, EGFR[L858R][T790]; format: biochemical; conditions: 10 μM test compound, 150 μM ATP
Protocol: as §3

[4] = biological target: cRAF[Y340D][Y341D] (Homo sapiens, UniProt P04049, Y340D/Y341D); assay: Kinase inhibition ELISA, cRAF[Y340D][Y341D]; format: biochemical; conditions: 10 μM test compound, 150 μM ATP
Protocol: as §1, §2

[5] = biological target: JAK2 (Homo sapiens, UniProt O60674); assay: Kinase inhibition ELISA, JAK2; format: biochemical; conditions: 10 μM test compound, 150 μM ATP
Protocol: as §3

[6] = biological target: T2, JAK3 (Homo sapiens, UniProt P52333); assay: Kinase inhibition ELISA, JAK3; format: biochemical; conditions: 10 μM test compound, 150 μM ATP
T2 sequence (P52333 1-1124): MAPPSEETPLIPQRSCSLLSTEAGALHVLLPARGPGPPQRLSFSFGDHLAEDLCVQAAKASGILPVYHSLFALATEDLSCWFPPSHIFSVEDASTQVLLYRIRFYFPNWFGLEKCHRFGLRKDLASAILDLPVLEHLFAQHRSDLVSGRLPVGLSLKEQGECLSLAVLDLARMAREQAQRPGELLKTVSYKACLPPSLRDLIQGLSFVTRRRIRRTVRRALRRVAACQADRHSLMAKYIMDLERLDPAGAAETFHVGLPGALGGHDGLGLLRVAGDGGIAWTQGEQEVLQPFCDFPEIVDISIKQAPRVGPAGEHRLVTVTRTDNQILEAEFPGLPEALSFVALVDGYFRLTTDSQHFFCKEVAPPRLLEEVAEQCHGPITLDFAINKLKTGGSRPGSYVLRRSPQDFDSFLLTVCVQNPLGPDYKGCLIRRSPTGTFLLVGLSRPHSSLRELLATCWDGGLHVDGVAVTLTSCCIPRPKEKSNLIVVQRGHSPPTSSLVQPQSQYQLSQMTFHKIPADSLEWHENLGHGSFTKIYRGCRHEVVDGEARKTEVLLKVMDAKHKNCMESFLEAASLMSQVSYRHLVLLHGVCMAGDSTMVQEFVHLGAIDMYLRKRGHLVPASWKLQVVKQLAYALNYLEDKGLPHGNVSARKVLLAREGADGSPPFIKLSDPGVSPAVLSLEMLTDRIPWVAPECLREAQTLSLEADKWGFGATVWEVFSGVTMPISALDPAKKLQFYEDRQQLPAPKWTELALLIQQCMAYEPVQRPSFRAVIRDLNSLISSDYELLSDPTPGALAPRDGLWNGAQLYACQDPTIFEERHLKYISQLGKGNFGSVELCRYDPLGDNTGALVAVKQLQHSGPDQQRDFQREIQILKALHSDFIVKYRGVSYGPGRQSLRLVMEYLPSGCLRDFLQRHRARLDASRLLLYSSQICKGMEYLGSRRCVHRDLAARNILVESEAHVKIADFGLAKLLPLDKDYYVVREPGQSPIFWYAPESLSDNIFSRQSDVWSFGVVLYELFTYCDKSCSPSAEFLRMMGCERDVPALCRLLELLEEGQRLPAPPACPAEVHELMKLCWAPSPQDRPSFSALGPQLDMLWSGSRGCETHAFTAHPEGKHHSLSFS
Protocol: as §3
For compounds 2a–c,q, the IC50 value (μmol L^–1) was calculated from ten concentration points (in triplicate dilution) obtained twice. The data were analyzed using GraphPad Prism software (v. 3.1).

[7] = Solubility in DMSO (noted during NMR); format: physicochemical; conditions: in words; NMR sample in DMSO
Protocol: The signal for the carbon atom of the imino group at 166.6 ppm was detected in the spectrum of the arylimino derivative 2q. In the mass spectra of compounds 2h, 2i–n, and 2q, peaks of protonated molecular ions, consistent with the structure of these compounds, were observed.

cRAF[Y340D][Y341D], sequence (P04049 whole entry Y340D/Y341D): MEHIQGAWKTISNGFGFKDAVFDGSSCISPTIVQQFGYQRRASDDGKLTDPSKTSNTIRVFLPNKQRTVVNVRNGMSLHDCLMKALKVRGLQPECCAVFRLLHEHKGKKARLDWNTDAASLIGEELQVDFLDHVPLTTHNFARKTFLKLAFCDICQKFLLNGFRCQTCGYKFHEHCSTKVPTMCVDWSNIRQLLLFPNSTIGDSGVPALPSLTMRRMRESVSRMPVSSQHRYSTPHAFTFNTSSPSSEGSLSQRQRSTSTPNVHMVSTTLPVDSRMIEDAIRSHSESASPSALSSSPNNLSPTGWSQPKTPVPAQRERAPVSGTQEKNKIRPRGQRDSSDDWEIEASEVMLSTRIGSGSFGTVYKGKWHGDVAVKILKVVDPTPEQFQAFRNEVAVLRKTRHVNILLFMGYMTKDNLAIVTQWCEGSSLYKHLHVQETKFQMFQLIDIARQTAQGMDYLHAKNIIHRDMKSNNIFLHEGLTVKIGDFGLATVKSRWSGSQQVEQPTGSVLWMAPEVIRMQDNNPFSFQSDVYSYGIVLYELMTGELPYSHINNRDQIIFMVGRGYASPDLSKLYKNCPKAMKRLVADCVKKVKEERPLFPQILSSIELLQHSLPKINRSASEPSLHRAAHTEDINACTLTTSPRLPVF
EGFR[L858R][T790], sequence (P00533 669-1210 T790M/L858R limits assumed): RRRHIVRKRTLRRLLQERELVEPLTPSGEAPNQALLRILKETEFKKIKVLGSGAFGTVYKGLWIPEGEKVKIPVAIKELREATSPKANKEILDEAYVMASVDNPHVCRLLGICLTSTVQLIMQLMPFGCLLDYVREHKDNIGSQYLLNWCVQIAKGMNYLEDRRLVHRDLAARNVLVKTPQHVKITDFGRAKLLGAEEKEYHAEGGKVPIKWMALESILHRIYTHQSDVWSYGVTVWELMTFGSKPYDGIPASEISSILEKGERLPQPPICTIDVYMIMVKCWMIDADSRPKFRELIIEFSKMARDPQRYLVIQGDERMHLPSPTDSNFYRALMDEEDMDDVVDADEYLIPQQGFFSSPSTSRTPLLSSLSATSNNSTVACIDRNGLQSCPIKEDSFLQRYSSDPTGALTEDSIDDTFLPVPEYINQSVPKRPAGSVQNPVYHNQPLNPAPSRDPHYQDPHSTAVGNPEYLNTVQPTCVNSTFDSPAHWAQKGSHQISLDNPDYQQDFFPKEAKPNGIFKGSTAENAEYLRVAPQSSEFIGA
JAK2, sequence (O60674 whole entry): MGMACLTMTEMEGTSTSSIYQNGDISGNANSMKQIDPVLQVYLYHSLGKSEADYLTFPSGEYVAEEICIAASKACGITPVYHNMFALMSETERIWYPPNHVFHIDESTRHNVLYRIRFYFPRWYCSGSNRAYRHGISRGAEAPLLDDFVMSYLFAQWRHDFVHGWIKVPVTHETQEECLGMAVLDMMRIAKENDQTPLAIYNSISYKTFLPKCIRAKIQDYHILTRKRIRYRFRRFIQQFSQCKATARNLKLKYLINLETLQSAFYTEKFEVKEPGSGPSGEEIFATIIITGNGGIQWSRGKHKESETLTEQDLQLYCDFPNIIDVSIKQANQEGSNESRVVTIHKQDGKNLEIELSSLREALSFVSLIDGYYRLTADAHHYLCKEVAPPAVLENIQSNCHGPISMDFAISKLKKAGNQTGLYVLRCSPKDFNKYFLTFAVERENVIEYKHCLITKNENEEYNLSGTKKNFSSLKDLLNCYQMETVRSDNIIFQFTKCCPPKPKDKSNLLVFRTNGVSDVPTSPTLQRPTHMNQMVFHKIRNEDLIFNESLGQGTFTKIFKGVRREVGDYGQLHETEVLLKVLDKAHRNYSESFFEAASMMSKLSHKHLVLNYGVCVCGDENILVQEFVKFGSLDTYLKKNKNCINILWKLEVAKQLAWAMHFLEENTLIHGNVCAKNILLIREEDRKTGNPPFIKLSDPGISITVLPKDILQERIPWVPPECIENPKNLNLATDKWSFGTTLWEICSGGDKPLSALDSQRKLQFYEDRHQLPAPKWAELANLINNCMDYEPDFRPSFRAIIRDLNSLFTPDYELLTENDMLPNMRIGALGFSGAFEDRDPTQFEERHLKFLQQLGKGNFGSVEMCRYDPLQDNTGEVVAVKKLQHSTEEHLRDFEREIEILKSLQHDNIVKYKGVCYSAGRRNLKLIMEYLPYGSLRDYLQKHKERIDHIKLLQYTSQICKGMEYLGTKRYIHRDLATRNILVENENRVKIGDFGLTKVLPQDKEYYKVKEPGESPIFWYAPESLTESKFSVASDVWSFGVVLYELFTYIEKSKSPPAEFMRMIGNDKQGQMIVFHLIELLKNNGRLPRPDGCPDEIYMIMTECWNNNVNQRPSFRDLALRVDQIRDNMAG
T1 sequence (Q9UM73 whole entry, looked up, the tested form may be a part): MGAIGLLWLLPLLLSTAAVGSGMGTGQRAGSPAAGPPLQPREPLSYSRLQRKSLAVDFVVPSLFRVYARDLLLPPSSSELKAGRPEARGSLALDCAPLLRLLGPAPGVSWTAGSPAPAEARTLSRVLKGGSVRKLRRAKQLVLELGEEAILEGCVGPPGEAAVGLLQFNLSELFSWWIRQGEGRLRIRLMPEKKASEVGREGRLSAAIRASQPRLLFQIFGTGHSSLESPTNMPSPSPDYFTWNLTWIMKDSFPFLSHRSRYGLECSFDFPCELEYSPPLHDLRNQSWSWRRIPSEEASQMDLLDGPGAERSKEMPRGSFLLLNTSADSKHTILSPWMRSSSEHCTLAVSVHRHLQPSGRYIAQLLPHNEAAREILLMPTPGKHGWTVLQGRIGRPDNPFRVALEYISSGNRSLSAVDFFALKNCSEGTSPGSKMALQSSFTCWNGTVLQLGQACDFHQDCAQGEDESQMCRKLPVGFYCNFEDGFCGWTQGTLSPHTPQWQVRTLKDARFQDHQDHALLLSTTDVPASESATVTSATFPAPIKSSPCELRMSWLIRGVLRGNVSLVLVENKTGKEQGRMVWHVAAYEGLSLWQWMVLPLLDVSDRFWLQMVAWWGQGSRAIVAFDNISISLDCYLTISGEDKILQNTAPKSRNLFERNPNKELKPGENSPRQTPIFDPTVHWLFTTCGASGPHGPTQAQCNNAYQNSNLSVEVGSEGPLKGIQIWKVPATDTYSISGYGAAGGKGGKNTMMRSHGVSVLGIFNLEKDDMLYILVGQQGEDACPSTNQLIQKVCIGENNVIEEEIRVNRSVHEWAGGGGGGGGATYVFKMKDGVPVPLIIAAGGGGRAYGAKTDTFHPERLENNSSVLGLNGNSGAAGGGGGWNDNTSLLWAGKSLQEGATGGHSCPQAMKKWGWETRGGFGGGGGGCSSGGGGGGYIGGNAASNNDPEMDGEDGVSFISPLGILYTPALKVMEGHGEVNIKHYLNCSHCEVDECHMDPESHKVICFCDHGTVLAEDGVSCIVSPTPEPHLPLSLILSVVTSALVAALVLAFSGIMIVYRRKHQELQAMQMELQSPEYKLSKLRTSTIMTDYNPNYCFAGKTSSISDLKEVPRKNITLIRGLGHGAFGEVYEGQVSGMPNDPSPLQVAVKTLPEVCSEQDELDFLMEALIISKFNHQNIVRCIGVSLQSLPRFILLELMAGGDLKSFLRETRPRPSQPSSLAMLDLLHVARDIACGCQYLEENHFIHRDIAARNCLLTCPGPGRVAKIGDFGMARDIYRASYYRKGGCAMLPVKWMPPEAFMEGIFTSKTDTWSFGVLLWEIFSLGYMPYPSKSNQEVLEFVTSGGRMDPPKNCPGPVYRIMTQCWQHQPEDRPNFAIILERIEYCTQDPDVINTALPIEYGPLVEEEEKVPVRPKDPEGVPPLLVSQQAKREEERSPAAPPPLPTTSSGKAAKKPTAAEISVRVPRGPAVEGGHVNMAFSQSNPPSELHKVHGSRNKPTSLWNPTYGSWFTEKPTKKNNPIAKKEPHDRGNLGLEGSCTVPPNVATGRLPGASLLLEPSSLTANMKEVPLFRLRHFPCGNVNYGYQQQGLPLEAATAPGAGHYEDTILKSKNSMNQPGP

For `CC1(C)c2ssc(=S)c2-c2cc3c(c4c2N1C(=O)C4=O)OCCO3` [2n, 8,8-Dimethyl-11-thioxo-2,3,8,11-tetrahydro[1,4]dioxino[2,3-g][1,2]dithiolo[3,4-c]pyrrolo[3,2,1-ij]quinoline-5,6-dione], the inhibition at 10 µM [1] was 24%, the inhibition at 10 µM [2] was 19% and the inhibition at 10 µM [3] was 5%. It also gave an inhibition at 10 µM [4] of 13%, an inhibition at 10 µM [5] of 47% and an inhibition at 10 µM [6] of 52%. The “solubility in DMSO” value [7] was “low solubility in DMSO” and the melting point was greater than 260 °C.
